According to patent publication US20230099344A1, “COMPOUNDS AND METHODS FOR THE TARGETED DEGRADATION OF IRAK-4” (Arvinas Operations, Inc., priority 2021, published 2023):

Molecular target: T1, IRAK-4 (Homo sapiens, UniProt Q9NWZ3)
T1 sequence (Q9NWZ3 1-460): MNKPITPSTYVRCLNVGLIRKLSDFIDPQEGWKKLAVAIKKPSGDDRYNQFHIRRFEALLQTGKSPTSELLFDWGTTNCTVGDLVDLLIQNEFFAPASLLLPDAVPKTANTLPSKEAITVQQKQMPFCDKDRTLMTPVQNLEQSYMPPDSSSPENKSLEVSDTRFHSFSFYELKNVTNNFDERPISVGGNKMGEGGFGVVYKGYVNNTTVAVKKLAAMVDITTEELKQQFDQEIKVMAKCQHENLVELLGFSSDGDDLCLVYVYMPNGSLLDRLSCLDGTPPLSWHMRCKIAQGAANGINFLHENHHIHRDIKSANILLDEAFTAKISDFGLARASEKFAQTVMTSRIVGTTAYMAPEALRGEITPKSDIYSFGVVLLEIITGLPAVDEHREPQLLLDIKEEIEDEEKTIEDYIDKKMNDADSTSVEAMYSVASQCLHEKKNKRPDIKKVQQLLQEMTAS
Experiment: IRAK-4 ELISA, PBMC degradation
Assay type: cell-based
Design: endogenous in cells; host or cells: PBMC
Settings: treated overnight
Summary of the method: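 IRAK-4 levels measured by matched-antibody-pair ELISA on lysates after overnight compound exposure. Cells seeded same day: PBMC at 2×10^6/ml, OCI-Ly10 at 1×10^6/ml.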

Row | Structure (SMILES) | DC50 [nM] | Dmax [%] | PBMC DC90 | PBMC Dmax
1 | O=C1CCC(N2C(=O)c3ccc(N4CC5(CCC(N6CCC(n7cc8cc(NC(=O)c9cnn%10cccnc9%10)c(OCC9CC9)cc8n7)CC6)CC5)C4)cc3C2=O)C(=O)N1 (centres unmarked) [Example 227] | 1 to 5 | 80 to 90 | A (A represents a DC90 value <10.0 nM) | 
2 | O=C1CCC(N2C(=O)c3ccc(N4CC(CN5CCC([C@H](F)CN6Cc7cc(NC(=O)c8cnn9cccnc89)c(N8CCOCC8)cc7C6=O)CC5)C4)cc3C2=O)C(=O)N1 (stereo partly drawn) [Example 412, N-(2-((2S)-2-(1-((1-(2-(2,6-dioxopiperidin-3-yl)-1,3-dioxoisoindolin-5-yl)azetidin-3-yl)methyl)piperidin-4-yl)-2-fluoroethyl)-6-morpholino-1-oxoisoindolin-5-yl)pyrazolo[1,5-a]pyrimidine-3-carboxamide] | 1 to 5 | 80 to 90 | A (A represents a DC90 value <10.0 nM) | 
3 | CC(C)Oc1cc2nn([C@H]3CC[C@H](N(C)CC4(F)CN(c5ccc6c(c5)C(=O)N(C5CCC(=O)NC5=O)C6=O)C4)CC3)cc2cc1NC(=O)c1cnn2cccnc12 (some centres unmarked) [Example 347] | 1 to 5 | 80 to 90 | B (B represents a DC90 value ≥10.0 nM and <25.0 nM) | 
4 | O=C1CCC(N2C(=O)c3ccc(N4CCC(CN5CCC(n6cc7cc(NC(=O)c8cnn9cccnc89)c(C8CC8)cc7n6)CC5)CC4)cc3C2=O)C(=O)N1 (centres unmarked) [Example 186] | 1 to 5 | ≥ 90 | A (A represents a DC90 value <10.0 nM) | 
5 | CC(C)Oc1cc2c(cc1NC(=O)c1cnn3cccnc13)CN(C1CCN(C[C@@H]3CN(c4ccc5c(c4)C(=O)N(C4CCC(=O)NC4=O)C5=O)CCO3)CC1)C2=O (some centres unmarked) [Example 78] | < 1 | ≥ 90 | A (A represents a DC90 value <10.0 nM) | 
6 | CC(C)Oc1cc2nn(C3CCN(CC4CCN(c5ccc6c(c5)C(=O)N(C5CCC(=O)NC5=O)C6=O)CC4)CC3)cc2cc1NC(=O)c1cnn2cccnc12 (centres unmarked) [Example 138] | < 1 | ≥ 90 | A (A represents a DC90 value <10.0 nM) | 
7 | O=C1CCC(N2C(=O)c3ccc(N4CC(CN5CCC(N6Cc7cc(NC(=O)c8cnn9cccnc89)c(OCC(F)F)cc7C6=O)CC5)C4)cc3C2=O)C(=O)N1 (centres unmarked) [Example 103] | < 1 | 80 to 90 | A (A represents a DC90 value <10.0 nM) | 
8 | O=C1CCC(N2Cc3cc(N4CC(F)(CN5CCC(n6cc7cc(NC(=O)c8cnn9cccnc89)c(OCC8CC8)cc7n6)CC5)C4)cc(F)c3C2=O)C(=O)N1 (centres unmarked) [Example 420, N-[6-(cyclopropylmethoxy)-2-[1-[[1-[2-(2,6-dioxo-3-piperidyl)-7-fluoro-1-oxo-isoindolin-5-yl]-3-fluoro-azetidin-3-yl]methyl]-4-piperidyl]indazol-5-yl]pyrazolo[1,5-a]pyrimidine-3-carboxamide] | < 1 | ≥ 90 | A (A represents a DC90 value <10.0 nM) | 
9 | CC(C)Oc1cc2c(cc1NC(=O)c1cnn3cccnc13)CN(C1CCN(C(=O)C3CN(c4ccc5c(c4)C(=O)N(C4CCC(=O)NC4=O)C5=O)C3)CC1)C2=O (centres unmarked) [Example 71] | 1 to 5 | ≥ 90 | B (B represents a DC90 value ≥10.0 nM and <25.0 nM) | 
10 | O=C1CCC(N2C(=O)c3ccc(N4CC(O[C@H]5CC[C@H](n6cc7cc(NC(=O)c8cnn9cccnc89)c(OCC8CC8)cc7n6)CC5)C4)cc3C2=O)C(=O)N1 (some centres unmarked) [Example 183] | 1 to 5 | ≥ 90 | B (B represents a DC90 value ≥10.0 nM and <25.0 nM) | 
11 | CN(CC1CCN(c2ccc3c(c2)C(=O)N(C2CCC(=O)NC2=O)C3=O)CC1)[C@H]1CC[C@H](n2cc3cc(NC(=O)c4cnn5cccnc45)c(OCC4CC4)cc3n2)CC1 (some centres unmarked) [Example 349] | < 1 | 80 to 90 | A (A represents a DC90 value <10.0 nM) | 
12 | COc1cc(N2CCC(CN3CCC(n4cc5cc(NC(=O)c6cnn7cccnc67)c(OCC6CC6)cc5n4)CC3)CC2)cc2c1C(=O)N(C1CCC(=O)NC1=O)C2=O (centres unmarked) [Example 133] | < 1 | ≥ 90 | A (A represents a DC90 value <10.0 nM) | 
13 | C[C@H](Oc1cc2nn(C3CCN(CC4(F)CN(c5ccc6c(c5)C(=O)N(C5CCC(=O)NC5=O)C6=O)C4)CC3)cc2cc1NC(=O)c1cnn2cccnc12)C1CC1 (some centres unmarked) [Example 264] | 1 to 5 | 70 to 80 | B (B represents a DC90 value ≥10.0 nM and <25.0 nM) | 
14 | CN(C1CCC(N2Cc3cc(NC(=O)c4cnn5cccnc45)c(OC4CC4)cc3C2=O)CC1)C1CCN(c2ccc3c(c2)C(=O)N(C2CCC(=O)NC2=O)C3=O)CC1 (centres unmarked) [Example 342] | < 1 | ≥ 90 | A (A represents a DC90 value <10.0 nM) | 
15 | CC(C)Oc1cc2c(cc1NC(=O)c1cnn3cccnc13)CN([C@H]1CC[C@@H](N3CCN(c4ccc5c(c4)CN(C4CCC(=O)NC4=O)C5=O)CC3)CC1)C2=O (some centres unmarked) [Example 276] | < 1 | 80 to 90 | A (A represents a DC90 value <10.0 nM) | 
16 | O=C1CCC(N2C(=O)c3ccc(N4CCN(CCOC[C@H](F)CN5Cc6cc(NC(=O)c7cnn8cccnc78)c(N7CCOCC7)cc6C5=O)CC4)cc3C2=O)C(=O)N1 (some centres unmarked) [Example 92] | 1 to 5 | ≥ 90 | B (B represents a DC90 value ≥10.0 nM and <25.0 nM) | 
17 | COc1cc(N2CCC(CN3CCC(n4cc5cc(NC(=O)c6cnn7cccnc67)c(OCC6CC6)cc5n4)CC3)CC2)cc2c1C(=O)N(C1CCC(=O)NC1=O)C2 (centres unmarked) [Example 132] | < 1 | ≥ 90 | A (A represents a DC90 value <10.0 nM) | 
18 | CC(C)Oc1cc2c(cc1NC(=O)c1cnn3ccc(N4CCOCC4)nc13)CN(C1CCC(N(C)C3CN(c4ccc5c(c4)CN(C4CCC(=O)NC4=O)C5=O)C3)CC1)C2=O (centres unmarked) [Example 315] | 5 to 10 | < 70 | D (D represents a DC90 value ≥50 nM) | 
19 | CC(C)Oc1nc2nn(C3CCN(CC4(F)CN(c5ccc6c(c5)CN(C5CCC(=O)NC5=O)C6=O)C4)CC3)cc2cc1NC(=O)c1cnn2cccnc12 (centres unmarked) [Example 416, N-[2-[1-[[1-[2-(2,6-dioxo-3-piperidyl)-1-oxo-isoindolin-5-yl]-3-fluoro-azetidin-3-yl]methyl]-4-piperidyl]-6-isopropoxy-pyrazolo[3,4-b]pyridin-5-yl]pyrazolo[1,5-a]pyrimidine-3-carboxamide] | < 1 | 80 to 90 | A (A represents a DC90 value <10.0 nM) | 
20 | O=C1CCC(N2C(=O)c3ccc(N4CCC(COCCN5Cc6cc(NC(=O)c7cnn8cccnc78)c(N7CCOCC7)cc6C5=O)CC4)cc3C2=O)C(=O)N1 (centres unmarked) [Example 95] | < 1 | ≥ 90 | A (A represents a DC90 value <10.0 nM) | 
21 | CC(C)Oc1cc2nn(C3CCN(CC4(F)CN(c5cccc6c5C(=O)N(C5CCC(=O)NC5=O)C6=O)C4)CC3)cc2cc1NC(=O)c1cnn2cccnc12 (centres unmarked) [Example 271, N-(2-(1-((1-(2-(2,6-dioxopiperidin-3-yl)-1,3-dioxoisoindolin-4-yl)-3-fluoroazetidin-3-yl)methyl)piperidin-4-yl)-6-isopropoxy-2H-indazol-5-yl)pyrazolo[1,5-a]pyrimidine-3-carboxamide] | 5 to 10 | 80 to 90 | D (D represents a DC90 value ≥50 nM) | 
22 | CC(C)Oc1cc2c(cc1NC(=O)c1cnn3cccnc13)CN(C1CCC(N(C)C3CN(c4ccc5c(c4)CN(C4CCC(=O)NC4=O)C5=O)C3)CC1)C2=O (centres unmarked) [Example 329] |  |  | A (A represents a DC90 value <10.0 nM) | A (A represents a Dmax value ≥90)
23 | CC(C)Oc1cc2c(cc1NC(=O)c1cnn3cccnc13)CN(C1CCC(N(C)C3CCN(c4ccc5c(c4)C(=O)N(C4CCC(=O)NC4=O)C5=O)CC3)CC1)C2=O (centres unmarked) [Example 316] | < 1 | ≥ 90 | A (A represents a DC90 value <10.0 nM) | 
24 | COc1cc(CCN2CCC(N3Cc4cc(NC(=O)c5cnn6cccnc56)c(OC(C)C)cc4C3=O)CC2)cc2c1C(=O)N(C1CCC(=O)NC1=O)C2 (centres unmarked) [Example 11] | 1 to 5 | ≥ 90 | C (C represents a DC90 value ≥25.0 nM and <50 nM) | 
25 | O=C1CCC(N2C(=O)c3ccc(N4CC(CN5CCC(n6cc7cc(NC(=O)c8cnn9cccnc89)c(C8CC8)cc7n6)CC5)C4)cc3C2=O)C(=O)N1 (centres unmarked) [Example 185] | < 1 | ≥ 90 | A (A represents a DC90 value <10.0 nM) | 
26 | COc1cc(N2CC(CN3CCC(N4Cc5cc(NC(=O)c6cnn7cccnc67)c(OC(C)C)cc5C4=O)CC3)C2)cc2c1C(=O)N(C1CCC(=O)NC1=O)C2=O (centres unmarked) [Example 14] | < 1 | ≥ 90 | A (A represents a DC90 value <10.0 nM) | 
27 | COc1cc2c(cc1N1CC(F)(CN3CCC(n4cc5cc(NC(=O)c6cnn7cccnc67)c(OCC6CC6)cc5n4)CC3)C1)C(=O)N(C1CCC(=O)NC1=O)C2=O (centres unmarked) [Example 244] | 1 to 5 | 80 to 90 | B (B represents a DC90 value ≥10.0 nM and <25.0 nM) | 
28 | O=C1CCC(N2C(=O)c3ccc(N4CC(F)(CN5CCC(N6Cc7cc(NC(=O)c8cnn9cccnc89)c(C8CC8)cc7C6=O)CC5)C4)cc3C2=O)C(=O)N1 (centres unmarked) [Example 100] | 1 to 5 | ≥ 90 | B (B represents a DC90 value ≥10.0 nM and <25.0 nM) | 
